Data as given in patent publication US7968604B2, “Pharmaceutical composition for prevention and treatment of drug or alcohol addiction or bipolar disorder using sodium phenylbutyrate” (priority 2005, dated 2011).

Tests used:
Format in all cases: in vivo, Sprague-Dawley rats
[1] = test system: cocaine-induced locomotor activity and rearing; assay: cocaine-induced (acute) locomotor activity and rearing in rats
Description: In order to examine effects of a pharmaceutical composition for prevention and treatment of drug or alcohol addiction or bipolar disorder containing sodium phenylbutyrate (PBA) in accordance with the present invention, the following animal experiments were carried out using Sprague-Dawley rats, weighing 250-275 g (upon arrival), (Samtaco Animal Breeding Company, Osan, Korea).
A bank of 12 activity boxes was used to measure locomotor activity of animals (Kim & Vezina, 1998). Each box (22×43×33 cm) estimated locomotor activity from photo beam interruptions. Rats were placed in the activity boxes for a 1-hour habituation period. Then, these rats were administered with the respective dosages of the pharmaceutical composition and were immediately placed again in the activity boxes, and locomotor activity and rearing activity of rats were measured for additional 2 hours. […] Rearing activity was also measured by counting upward/downward motion of rats via photo beams installed in the activity boxes. […]
Different concentrations (0.1, 1.0, 5.0 and 10.0 mg/kg) of sodium phenylbutyrate were intraperitoneally injected (acute) alone or in combination with cocaine (15 mg/kg) into rats, and locomotor activity and rearing of animals were measured for 2 hours. […]

[2] = test system: amphetamine-induced locomotor activity; assay: amphetamine-induced (acute) locomotor activity in rats
Description: In order to examine effects of a pharmaceutical composition for prevention and treatment of drug or alcohol addiction or bipolar disorder containing sodium phenylbutyrate (PBA) in accordance with the present invention, the following animal experiments were carried out using Sprague-Dawley rats, weighing 250-275 g (upon arrival), (Samtaco Animal Breeding Company, Osan, Korea). A bank of 12 activity boxes was used to measure locomotor activity of animals (Kim & Vezina, 1998). Each box (22×43×33 cm) estimated locomotor activity from photo beam interruptions. Rats were placed in the activity boxes for a 1-hour habituation period. Then, these rats were administered with the respective dosages of the pharmaceutical composition and were immediately placed again in the activity boxes, and locomotor activity and rearing activity of rats were measured for additional 2 hours. […] Rearing activity was also measured by counting upward/downward motion of rats via photo beams installed in the activity boxes. […] Similar to Example 1, different concentrations (0.1, 1.0 and 10.0 mg/kg) of sodium phenylbutyrate were intraperitoneally injected (acute) alone or in combination with amphetamine (1.5 mg/kg) into rats, and locomotor activity of animals was measured for 2 hours. […]

[3] = test system: amphetamine-induced behavioral sensitization; assay: amphetamine-induced behavioral sensitization (chronic) in rats
Description: In order to examine effects of a pharmaceutical composition for prevention and treatment of drug or alcohol addiction or bipolar disorder containing sodium phenylbutyrate (PBA) in accordance with the present invention, the following animal experiments were carried out using Sprague-Dawley rats, weighing 250-275 g (upon arrival), (Samtaco Animal Breeding Company, Osan, Korea). A bank of 12 activity boxes was used to measure locomotor activity of animals (Kim & Vezina, 1998). Each box (22×43×33 cm) estimated locomotor activity from photo beam interruptions. Rats were placed in the activity boxes for a 1-hour habituation period. Then, these rats were administered with the respective dosages of the pharmaceutical composition and were immediately placed again in the activity boxes, and locomotor activity and rearing activity of rats were measured for additional 2 hours. Specifically, a computer was adapted to count locomotion of rats via photo beams installed on the top/bottom and right/left of the activity boxes, and such locomotion behavior of rats was confirmed for two hours. Rearing activity was also measured by counting upward/downward motion of rats via photo beams installed in the activity boxes. […]

locomotor activity = locomotor activity after sodium phenylbutyrate alone daily for 7 days; conditions: rats, 0.1 and 1.0 mg/kg i.p. once a day for 7 days, measured day 1 and day 7
Description: In order to examine effects of a pharmaceutical composition for prevention and treatment of drug or alcohol addiction or bipolar disorder containing sodium phenylbutyrate (PBA) in accordance with the present invention, the following animal experiments were carried out using Sprague-Dawley rats, weighing 250-275 g (upon arrival), (Samtaco Animal Breeding Company, Osan, Korea). A bank of 12 activity boxes was used to measure locomotor activity of animals (Kim & Vezina, 1998). Each box (22×43×33 cm) estimated locomotor activity from photo beam interruptions. Rats were placed in the activity boxes for a 1-hour habituation period. Then, these rats were administered with the respective dosages of the pharmaceutical composition and were immediately placed again in the activity boxes, and locomotor activity and rearing activity of rats were measured for additional 2 hours. Specifically, a computer was adapted to count locomotion of rats via photo beams installed on the top/bottom and right/left of the activity boxes, and such locomotion behavior of rats was confirmed for two hours. Rearing activity was also measured by counting upward/downward motion of rats via photo beams installed in the activity boxes. […] On day 1 and day 7 of drug administration, locomotor activity of animals was measured. […]

**Q.** Which results are given for O=C(O)CCCc1ccccc1 [sodium phenylbutyrate]?
**A.** effect on increase in cocaine-induced locomotor activity and rearing ([1]; i.p. acute, 0.1, 1.0, 5.0 and 10.0 mg/kg with cocaine 15 mg/kg, measured 2 hours): reduce an increase in cocaine-induced locomotor activity and rearing of rats in a dose-dependent manner; dose at which effects on cocaine-induced locomotor activity and rearing were greatest ([1]; i.p. acute, with cocaine 15 mg/kg): 1.0 mg/kg; effect on increase in amphetamine-induced locomotor activity ([2]; i.p. acute, 0.1, 1.0 and 10.0 mg/kg with amphetamine 1.5 mg/kg, measured 2 hours): decrease an increase in amphetamine-induced locomotor activity; dose range at which effects on amphetamine-induced locomotor activity were similarly exhibited ([2]; i.p. acute, with amphetamine 1.5 mg/kg): 0.1 to 10.0 mg/kg; effect on amphetamine-induced behavioral sensitization ([3]; rats, 0.1, 1.0 and 10.0 mg/kg with amphetamine 1.5 mg/kg four times at 2 to 3 day intervals, one-week withdrawal, amphetamine challenge): significant blocking effects against amphetamine-induced behavioral sensitization; dose range at which blocking of behavioral sensitization was particularly strong ([3]; rats, repeated co-administration with amphetamine 1.5 mg/kg): 0.1 to 1.0 mg/kg; changes in locomotor activity on administration of sodium phenylbutyrate alone (locomotor activity): does not result in any significant changes in locomotor activity of animals
